Data on 9 compounds can be found in US8124610B2, “Sodium channel inhibitors” (Icagen Inc., priority 2007, dated 2012).

Some results are limits rather than exact numbers.

For assay [1], the target named is T1, hSCN3A (Homo sapiens, UniProt Q9NY46).
T1 construct: expressed in transfected cells
The experiment in a line: Whole-cell patch-clamp electrophysiology (conventional or PatchXpress), HEK cells expressing hSCN3A, estimated IC-50. The note with it: estimated IC-50, HEK cells expressing hSCN3A; class symbols or bounds; read-out: SCN3A EIC-50. The class given is cell-based. An outline of the steps: (§1)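 Current through each channel was evoked by a 20 ms step to 0 mV following an 8 s conditioning prepulse at the cell's own half-inactivation voltage. Recordings used HEK lines stably expressing the channel, conventional or PatchXpress patch clamp, room temperature, pH 7.4 bath; inhibition taken as pre/post-compound amplitude change.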

In assay [2] the target is T2, hSCN9A (Homo sapiens, UniProt Q15858).
T2 construct: expressed in transfected cells
Description: Whole-cell patch-clamp electrophysiology (conventional or PatchXpress), HEK cells expressing hSCN9A, estimated IC-50. The class given is cell-based. The note with it: estimated IC-50, HEK cells expressing hSCN9A; class symbols or bounds; read-out: SCN9A EIC-50. An outline of the steps: as §1

Assay [3] deals with Nav1.8 (Homo sapiens, UniProt Q9Y5Y9). The note with it: read-out: TTX IC-50; cited from earlier work.
Assay [4] deals with Nav1.1 (Homo sapiens, UniProt P35498). The note with it: read-out: TTX IC-50; cited from earlier work.
Assay [5] has as its target Nav1.6 (Homo sapiens, UniProt Q9UQD0). The note with it: read-out: TTX IC-50; cited from earlier work.
Assay [6] has as its target Nav1.3 (Homo sapiens, UniProt Q9NY46). The note with it: read-out: TTX IC-50; cited from earlier work.
The target in assay [7] is Nav1.9 (Homo sapiens, UniProt Q9UI33). The conditions noted are these: read-out: TTX IC-50; cited from earlier work.
For assay [8], the target named is Nav1.2 (Homo sapiens, UniProt Q99250). The note with it: read-out: TTX IC-50; cited from earlier work.
For assay [9] the following is noted: cited from earlier work.

T2 sequence (Q15858 whole entry): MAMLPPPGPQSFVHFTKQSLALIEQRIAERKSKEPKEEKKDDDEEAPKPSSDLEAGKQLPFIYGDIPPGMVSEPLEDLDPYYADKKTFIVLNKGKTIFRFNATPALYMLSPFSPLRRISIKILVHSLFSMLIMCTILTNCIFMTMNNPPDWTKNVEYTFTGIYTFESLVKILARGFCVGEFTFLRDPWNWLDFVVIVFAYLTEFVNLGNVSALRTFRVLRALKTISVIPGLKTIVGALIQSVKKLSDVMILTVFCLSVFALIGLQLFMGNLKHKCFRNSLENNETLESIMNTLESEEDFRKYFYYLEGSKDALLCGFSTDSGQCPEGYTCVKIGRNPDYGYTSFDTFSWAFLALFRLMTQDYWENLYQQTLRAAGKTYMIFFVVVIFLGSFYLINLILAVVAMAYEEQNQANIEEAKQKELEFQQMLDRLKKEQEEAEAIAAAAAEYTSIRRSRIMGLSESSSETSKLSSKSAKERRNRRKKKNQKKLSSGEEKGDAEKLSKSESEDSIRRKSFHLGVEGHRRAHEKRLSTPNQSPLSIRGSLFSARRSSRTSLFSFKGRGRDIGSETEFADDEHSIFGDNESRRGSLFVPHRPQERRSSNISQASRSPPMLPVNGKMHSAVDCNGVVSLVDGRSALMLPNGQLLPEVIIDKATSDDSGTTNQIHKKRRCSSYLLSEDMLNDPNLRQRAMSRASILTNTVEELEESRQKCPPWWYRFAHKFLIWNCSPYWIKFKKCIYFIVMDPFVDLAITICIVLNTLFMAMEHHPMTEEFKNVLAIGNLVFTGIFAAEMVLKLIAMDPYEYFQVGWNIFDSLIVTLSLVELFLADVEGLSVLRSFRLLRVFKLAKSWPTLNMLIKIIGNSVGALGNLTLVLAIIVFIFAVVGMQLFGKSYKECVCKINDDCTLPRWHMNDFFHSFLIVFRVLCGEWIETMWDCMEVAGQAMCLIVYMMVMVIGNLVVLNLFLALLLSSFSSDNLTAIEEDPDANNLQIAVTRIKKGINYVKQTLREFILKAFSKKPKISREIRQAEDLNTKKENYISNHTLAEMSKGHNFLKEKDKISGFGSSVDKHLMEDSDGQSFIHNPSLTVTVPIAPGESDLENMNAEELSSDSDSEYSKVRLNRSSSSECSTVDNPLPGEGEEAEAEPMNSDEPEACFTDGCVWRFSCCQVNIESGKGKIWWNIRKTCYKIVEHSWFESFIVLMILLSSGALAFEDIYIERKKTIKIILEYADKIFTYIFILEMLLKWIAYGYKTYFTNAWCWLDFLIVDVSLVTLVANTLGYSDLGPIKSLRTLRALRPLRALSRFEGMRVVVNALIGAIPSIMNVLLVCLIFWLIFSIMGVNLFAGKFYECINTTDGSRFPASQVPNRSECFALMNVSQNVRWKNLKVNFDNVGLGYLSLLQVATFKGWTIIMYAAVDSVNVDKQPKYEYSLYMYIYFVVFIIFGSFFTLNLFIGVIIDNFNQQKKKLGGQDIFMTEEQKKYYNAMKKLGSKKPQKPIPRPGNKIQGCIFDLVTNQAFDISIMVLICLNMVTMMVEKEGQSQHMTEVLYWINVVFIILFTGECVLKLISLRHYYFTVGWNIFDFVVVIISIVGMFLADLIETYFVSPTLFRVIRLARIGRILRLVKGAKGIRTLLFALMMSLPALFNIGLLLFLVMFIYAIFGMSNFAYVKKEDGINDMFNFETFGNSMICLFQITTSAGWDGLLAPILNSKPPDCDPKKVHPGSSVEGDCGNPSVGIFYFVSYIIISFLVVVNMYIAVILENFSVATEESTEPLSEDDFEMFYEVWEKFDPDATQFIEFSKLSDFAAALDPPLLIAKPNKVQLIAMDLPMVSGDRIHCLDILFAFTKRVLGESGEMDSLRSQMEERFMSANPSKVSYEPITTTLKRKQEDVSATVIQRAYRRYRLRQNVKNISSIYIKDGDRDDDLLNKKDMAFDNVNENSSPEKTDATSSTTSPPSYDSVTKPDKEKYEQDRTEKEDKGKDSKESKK
T1 sequence (Q9NY46 whole entry): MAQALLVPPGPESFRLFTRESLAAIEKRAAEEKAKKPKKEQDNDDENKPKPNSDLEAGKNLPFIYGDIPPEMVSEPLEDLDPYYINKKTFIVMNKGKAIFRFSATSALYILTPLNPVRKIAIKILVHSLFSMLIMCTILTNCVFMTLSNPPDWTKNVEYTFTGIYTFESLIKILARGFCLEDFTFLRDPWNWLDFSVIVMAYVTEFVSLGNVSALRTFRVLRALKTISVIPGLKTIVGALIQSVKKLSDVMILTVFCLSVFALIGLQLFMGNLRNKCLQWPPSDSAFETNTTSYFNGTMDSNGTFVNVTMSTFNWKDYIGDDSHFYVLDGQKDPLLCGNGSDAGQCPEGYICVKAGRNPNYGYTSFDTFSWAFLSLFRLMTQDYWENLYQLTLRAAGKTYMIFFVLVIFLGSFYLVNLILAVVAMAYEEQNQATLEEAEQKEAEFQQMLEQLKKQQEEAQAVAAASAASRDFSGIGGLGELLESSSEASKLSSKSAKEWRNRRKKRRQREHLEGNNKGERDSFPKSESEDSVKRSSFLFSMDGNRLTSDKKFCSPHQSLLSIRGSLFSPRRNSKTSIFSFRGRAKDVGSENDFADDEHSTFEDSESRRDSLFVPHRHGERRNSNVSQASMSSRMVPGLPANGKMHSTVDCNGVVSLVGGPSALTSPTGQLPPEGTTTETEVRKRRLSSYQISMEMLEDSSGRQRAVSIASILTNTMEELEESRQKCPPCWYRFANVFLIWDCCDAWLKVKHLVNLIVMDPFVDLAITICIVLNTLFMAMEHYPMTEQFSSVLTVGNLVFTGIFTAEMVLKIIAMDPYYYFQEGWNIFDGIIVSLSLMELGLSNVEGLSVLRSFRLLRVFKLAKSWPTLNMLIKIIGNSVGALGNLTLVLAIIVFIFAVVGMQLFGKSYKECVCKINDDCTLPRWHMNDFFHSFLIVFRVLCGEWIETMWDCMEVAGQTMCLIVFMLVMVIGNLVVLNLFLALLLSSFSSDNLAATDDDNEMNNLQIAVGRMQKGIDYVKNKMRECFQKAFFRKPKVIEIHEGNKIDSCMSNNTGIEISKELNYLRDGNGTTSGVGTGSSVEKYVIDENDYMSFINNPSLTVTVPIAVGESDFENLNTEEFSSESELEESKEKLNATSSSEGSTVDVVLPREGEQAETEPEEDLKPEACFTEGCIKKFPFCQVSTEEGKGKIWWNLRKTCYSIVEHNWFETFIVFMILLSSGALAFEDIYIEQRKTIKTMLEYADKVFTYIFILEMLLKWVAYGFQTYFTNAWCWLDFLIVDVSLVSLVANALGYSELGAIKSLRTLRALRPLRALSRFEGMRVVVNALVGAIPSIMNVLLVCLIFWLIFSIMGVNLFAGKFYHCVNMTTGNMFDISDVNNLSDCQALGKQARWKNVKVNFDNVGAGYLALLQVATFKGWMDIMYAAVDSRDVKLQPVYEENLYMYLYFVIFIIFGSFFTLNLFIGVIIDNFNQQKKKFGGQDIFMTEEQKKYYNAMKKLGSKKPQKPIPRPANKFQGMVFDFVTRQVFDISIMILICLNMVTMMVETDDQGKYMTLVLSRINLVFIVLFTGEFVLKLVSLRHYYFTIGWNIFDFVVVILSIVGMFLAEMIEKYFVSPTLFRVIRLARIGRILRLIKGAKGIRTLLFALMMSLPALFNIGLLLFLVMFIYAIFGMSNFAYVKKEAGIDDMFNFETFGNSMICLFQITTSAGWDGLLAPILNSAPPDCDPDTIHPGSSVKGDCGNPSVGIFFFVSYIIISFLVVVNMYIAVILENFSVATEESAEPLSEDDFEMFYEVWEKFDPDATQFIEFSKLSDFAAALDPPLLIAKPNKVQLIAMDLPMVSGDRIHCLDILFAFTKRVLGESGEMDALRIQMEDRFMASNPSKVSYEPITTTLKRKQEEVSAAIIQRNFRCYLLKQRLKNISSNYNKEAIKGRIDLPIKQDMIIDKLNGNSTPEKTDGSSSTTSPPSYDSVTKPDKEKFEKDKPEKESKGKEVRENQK
Chain of Nav1.3 (Q9NY46 whole entry, looked up): as the sequence (Q9NY46 whole entry) above

In the case of `O=S(=O)(Nc1nccs1)c1ccc(Nc2ccn(Cc3ccc(Cl)cc3)n2)cc1Cl` [Compound 263, 2-chloro-4-(1-(4-chlorobenzyl)-1H-pyrazol-3-ylamino)-N-(thiazol-2-yl)benzenesulfonamide], the IC50 in assay [1] and in [2] was below 2 µM throughout.
As to `N#Cc1cc(Nc2ccn(Cc3ccc(Cl)cc3)n2)ccc1S(=O)(=O)Nc1nccs1` [Compound 264, 4-(1-(4-chlorobenzyl)-1H-pyrazol-3-ylamino)-2-cyano-N-(thiazol-2-yl)benzenesulfonamide], the IC50 in [1] and in [2] was below 2 µM in each case.
With `O=S(=O)(Nc1nccs1)c1ccc(Nc2ccn(Cc3ccc(Cl)cc3)n2)cc1OC(F)(F)F` [Compound 266, 4-(1-(4-chlorobenzyl)-1H-pyrazol-3-ylamino)-N-(thiazol-2-yl)-2-(trifluoromethoxy)benzenesulfonamide], the values for the IC50 in assay [1] and in [2] were 2 to 10 µM and above 1 µM, respectively.
For `Cc1cc(S(=O)(=O)Nc2nccs2)c(F)cc1Nc1ccn(Cc2ccc(Cl)cc2)n1` [Compound 269, 4-(1-(4-chlorobenzyl)-1H-pyrazol-3-ylamino)-2-fluoro-5-methyl-N-(thiazol-2-yl)benzenesulfonamide], the IC50 in [1] and in assay [2] was below 2 µM throughout.
Regarding `COc1ccc(C(=O)Cn2ncc3cc(S(=O)(=O)Nc4nccs4)ccc32)c(OC)c1` [Compound 276, 1-(2-(2,4-dimethoxyphenyl)-2-oxoethyl)-N-(thiazol-2-yl)-1H-indazole-5-sulfonamide], the IC50 in assay [1] was below 2 µM; in [2] it was above 1 µM.
With `COc1ccc(C(=O)Cn2cc3cc(S(=O)(=O)Nc4nccs4)ccc3n2)c(OC)c1` [Compound 277, 2-(2-(2,4-dimethoxyphenyl)-2-oxoethyl)-N-(thiazol-2-yl)-2H-indazole-5-sulfonamide], the IC50 was above 1 µM in assay [1] and below 2 µM in assay [2].
Consider `O=C(Cn1ncc2cc(S(=O)(=O)Nc3nccs3)ccc21)c1ccc(F)cc1` [Compound 280, 1-(2-(4-fluorophenyl)-2-oxoethyl)-N-(thiazol-2-yl)-1H-indazole-5-sulfonamide], for which the IC50 in assay [1] and in [2] was 2 to 10 µM in each case.
Regarding `NC1=N[C@H](O)[C@H]2[C@H]3O[C@]4(O)O[C@@H]([C@@H](O)[C@@]2(N1)[C@@H]4O)[C@]3(O)CO` [TTX, tetrodotoxin], the IC50 in [3] is 50 µM; in [4] it was 0.01 µM; in [5] it was 0.006 µM; in assay [6], 0.015 µM; in assay [7], 1 µM; in assay [8], 0.01 µM.
For `NCC1(CC(=O)O)CCCCC1` [gabapentin], the “patients that respond to gabapentin treatment for neuropathic pain” value in [9] is reported as 30%.
